# What was measured:
# S. aureus ATCC 13709 = test: Combination with Rifampicin in treatment of osteomyelitis induced in rats; assay type: in vivo, rat; conditions: 34 mg/kg 54 IV + 20 mg/kg Rifampicin s.c. on days 14, 15, 16, 17 after surgery; titer on day 43
# Protocol: The cells were washed twice with phosphate-buffered saline (PBS) and resuspended in BHIB supplemented with 10% (vol./vol.) fetal bovine serum at a density of approximately 10^10 colony forming units (CFU)/ml (based upon turbidimetry). The suspension was aliquoted and a portion was used to check the CFU count. The culture was stored frozen (−80° C.) and was used without subculture. For use as an inoculum the culture was thawed, diluted in PBS and kept in an ice bath until it was used.
# Animals were infected as described by O'Reilly et al. (Antimicrobial Agents and Chemotherapy (1992), 36(12): 2693-97) to generate the bone infection. Female CD rats (age, 57 to 70 days; n=5/group; Charles River, St-Constant, Canada) were anaesthetized by isofluorane before and during the surgery. Following complete induction of anesthesia, the rat was placed ventral side up and hair was shaved from the surgical site. The skin over the leg was cleaned and disinfected (proviodine-ethanol 70%). A longitudinal incision below the knee joint was made in the sagital plane. The incision was made over the bone below the “knee joint” (tibia head or condyle) but not completely extending to the ankle. A high speed drill fitted with a 2 mm bulb bit was used to drill a hole into the medullar cavity of the tibia. […]
# [1] = Bone powder binding, LC/MS detection; conditions: 100 μM compound, Tris-HCl pH 7, 0.15M NaCl, ground rat tibia bone, 10 min
# Protocol: The ability of the example molecules to bind to bone powder was established in two parallel fashions, using either LC/MS or fluorometric detection. For LC/MS detection, a stock solution (5 mM) of the compound to be tested was added to 0.1M Tris-HCl buffer pH 7, 0.15M NaCl to reach a final concentration of 100 μM. Triplicate samples (1 mL) of the compound solutions were intensively shaken for 10 min with or without 25 mg of fresh or 20 mg of vacuum dried ground rat tibia bone. The samples were then centrifuged for 15 min at 10 000 g. The presence of unbound compound was measured by injection of 30 μL of each of the supernatants into an Agilent 1100™ LC/UV system. For fluorometric detection, an individual compound was dissolved in PBS or water (compound 52) and resuspended at a concentration of 1 mg/ml in a slurry of bone meal powder (Now Foods, Bloomingdale, Ill., USA) in PBS at 10 mg/ml. The suspension of drug/prodrug in bone meal powder was incubated at 37° C. for 1 h to allow for binding, and centrifuged at 13 000 rpm for 2 min, before recovering the supernatant. The bone meal powder pellet was then washed three times with 1 ml of PBS. All supernatants were saved and assessed for fluoroquinolone content by fluorescence measurements at excitation/emission wavelengths of 280/465 nm. The amount of fluoroquinolone was determined from standard curves generated for each experiment. Amount of drug/prodrug bound to bone powder was deduced from the difference between the input amount (typically 1 mg) and the amount recovered in the supernatants after binding. In all binding experiments, >99% of input drug was recovered in the supernatant for the parent drugs.
# [2] = Levels of prodrug 52 in rat plasma in vivo
# Protocol: Female CD rats (age, 57 to 70 days; n=3/group; Charles River, St-Constant, Canada) were administered a single bolus intravenous (tail vein) dose of compound 52 (dissolved in 0.85% NaCl) at 15.8 mg/kg of body weight, corresponding to 10 mg/kg of moxifloxacin 3. Animals were sacrificed by CO2 inhalation at the specified time points after i.v. dosing to evaluate the levels of 52 in plasma. Blood samples were collected by cardiac puncture and transferred in BD Vacutainer tubes (green cap) for plasma isolation. The plasma components were obtained by centrifugation of these samples and they were stored at −80° C. until analysis.
# For the dosage of prodrug in the plasma, the standards and QCs were prepared (in duplicate) as follows: to 100 μl of blank plasma was added a spiking solution (5 μl) of the prodrug (52 in water). The range of the standards (8 levels) was from 0.06 to 25 μM and the QC levels were 0.18, 1.87 and 18.75 μM. Four samples of blank plasma without prodrug were also prepared. […]
# Moxifloxacin 3 resulting from the cleavage of the prodrug was analyzed with the same method on an Agilent 1100™ series LC/MSD Trap, The extracted sample was injected into a Zorbax™ SB-Aq column (2×30 mm, 3.5μ), using 0.1% formic acid in water(aq) and 0.1% formic acid in acetonitrile(org) as the mobile phase, at a flow rate of 0.3 ml/min. […]
smiles,measurement,setting,value
"COc1c(N2CCNC(C)C2)c(F)cc2c(=O)c(C(=O)OCC(=O)NC(P(=O)(O)O)P(=O)(O)O)cn(C3CC3)c12 (stereo not shown) [Compound 54, (1,1-Bisphosphonomethylcarbamoyl)methyl 7-(3-methylpiperazin-1-yl)-1-cyclopropyl-6-fluoro-1,4-dihydro-8-methoxy-4-oxoquinoline-3-carboxylate]","bacterial titer in the infected tibiae, combination with Rifampicin",S. aureus ATCC 13709,statistically significant decrease (p=0.007)
"COc1c(N2C[C@@H]3CCCN[C@@H]3C2)c(F)cc2c(=O)c(C(=O)OCC(=O)NC(P(=O)(O)O)P(=O)(O)O)cn(C3CC3)c12 [Compound 52, (1,1-Bisphosphonomethylcarbamoyl)methyl 1-cyclopropyl-6-fluoro-1,4-dihydro-7-((4aS,7aS)-octahydropyrrolo[3,4-b]pyridin-6-yl)-8-methoxy-4-oxoquinoline-3-carboxylate]",Binding to bone (%) LC/MS,[1],94.2 ± 3.2%
same,"clearance from the blood circulation of rats, in words",[2]; FIG. 5,rapid clearance
same,half-life of clearance from the circulation,"[2]; rat plasma, IV bolus 15.8 mg/kg, 5 min to 24 h",less than one hour

# — patent publication US20080287396A1, “Phosphonated Fluoroquinolones, Antibacterial Analogs Thereof, and Methods for the Prevention and Treatment of Bone and Joint Infections” (TARGANTA THERAPEUTICA INC., priority 2005, published 2008)
